Test [1] relates to SKBr3 (estrogen receptor negative, HER2 over-expressing breast cancer cells). The experiment in a line: Anti-proliferation assay (MTS/PMS, 72 h), SKBr3. It is filed as cell-based. The settings on record: Homo sapiens. As to the method:
(§1) Cells were maintained in a 1:1 mixture of Advanced DMEM/F12 (Gibco) supplemented with non-essential amino acids, L-glutamine (2 mM), streptomycin (500 μg/mL), penicillin (100 units/mL), and 10% FBS. Cells were grown to confluence in a humidified atmosphere (37° C., 5% CO2), seeded (2000/well, 100 μL) in 96-well plates, and allowed to attach overnight. Compound at varying concentrations in DMSO (1% DMSO final concentration) was added, and cells were returned to the incubator for 72 h. At 72 h, the number of viable cells was determined using an MTS/PMS cell proliferation kit (Promega) per the manufacturer's instructions. Cells incubated in 1% DMSO were used at 100% proliferation, and values were adjusted accordingly. IC50 values were calculated from separate experiments performed in triplicate using GraphPad Prism.
(§2) Anti-proliferative studies with the compounds described herein were performed against the SKBr3 (estrogen receptor negative, HER2 over-expressing breast cancer cells) and MCF-7 (estrogen receptor positive breast cancer cells) breast cancer cell lines. […] In some embodiments, in contrast to the novobiocin derivatives, which usually manifest better anti-proliferative activities against the SKBr3 cell line, the biphenyl derivatives described herein were more efficacious against the MCF-7 cell line. In general, all substitutions on the phenyl ring were determined to be beneficial, consistent with the existence of a hydrophobic pocket in this region of the Hsp90 C-terminal binding site.

The subject of test [2] is MCF-7 (estrogen receptor positive breast cancer cells). The experiment in a line: Anti-proliferation assay (MTS/PMS, 72 h), MCF-7. The following applies: Homo sapiens. In kind it is cell-based. As to the method:
as §1, §2

Setting [3] is: SK-BR-3, Table 3, substituted para-para biphenyl core.
Setting [4] is: MCF7, Table 3, substituted para-para biphenyl core.
[5] abbreviates: SK-BR-3, Table 6, para-para biphenyl core with substituted benzylamide.
The mark [6] stands for this setting: MCF7, Table 6, para-para biphenyl core with substituted benzylamide.
The mark [7] stands for this setting: SK-BR-3, Table 1, ortho, meta and para biphenyl cores.
[8] abbreviates: MCF7, Table 1, ortho, meta and para biphenyl cores.

IC50 data for 25 molecules are collected here from patent US10689344B2, “Biphenylamide derivative Hsp90 inhibitors” (University of Kansas, priority 2013, dated 2020).

Broadly, the IC50 is the midpoint of a concentration-inhibition curve. Read a low IC50 as inhibition by little substance.

Consider `COc1cccc(-c2cc(C(=O)Nc3ccc(-c4ccc(OC5CCN(C)CC5)cc4)c(OC)c3)ccc2OC)c1` [Compound 29g, 3′,6-dimethoxy-N-(2-methoxy-4′-((1-methylpiperidin-4-yl)oxy)-[1,1′-biphenyl]-4-yl)-[1,1′-biphenyl]-3-carboxamide], for which the concentration for half-maximal inhibition (IC50) turned out to be 900 ± 80 nM in test [1] (setting [3]) and 1500 ± 80 nM in test [2] (setting [4]).
For `COc1cccc(-c2cc(C(=O)Nc3ccc(-c4ccc(OC5CCN(C)CC5)cc4)cc3OC)ccc2OC)c1` [Compound 29h, 3′,6-dimethoxy-N-(3-methoxy-4′-((1-methylpiperidin-4-yl)oxy)-[1,1′-biphenyl]-4-yl)-[1,1′-biphenyl]-3-carboxamide] the same measures were 3920 ± 210 nM and 1220 ± 40 nM.
The corresponding values for `COc1cccc(-c2cc(C(=O)Nc3ccc(-c4ccc(OC5CCN(C)CC5)c(Cl)c4)cc3)ccc2OC)c1` [Compound 29i, N-(3′-chloro-4′-((1-methylpiperidin-4-yl)oxy)-[1,1′-biphenyl]-4-yl)-3′,6-dimethoxy-[1,1′-biphenyl]-3-carboxamide] are 1840 ± 570 nM and 1480 ± 120 nM.
For `COc1cccc(-c2cc(C(=O)Nc3ccc(-c4ccc(OC5CCN(C)CC5)cc4Cl)cc3)ccc2OC)c1` [Compound 29j, N-(2′-chloro-4′-((1-methylpiperidin-4-yl)oxy)-[1,1′-biphenyl]-4-yl)-3′,6-dimethoxy-[1,1′-biphenyl]-3-carboxamide] the same measures were 3680 nM and 3120 nM.
As for `COc1cccc(-c2cc(C(=O)Nc3ccc(-c4ccc(OC5CCN(C)CC5)cc4)c(Cl)c3)ccc2OC)c1` [Compound 29k, N-(2-chloro-4′-((1-methylpiperidin-4-yl)oxy)-[1,1′-biphenyl]-4-yl)-3′,6-dimethoxy-[1,1′-biphenyl]-3-carboxamide], the half-maximal inhibitory concentration (IC50) in test [1] (setting [3]) worked out at 2210 ± 180 nM; in test [2] (setting [4]), 3440 ± 210 nM.
For `COc1cccc(-c2cc(C(=O)Nc3ccc(-c4ccc(OC5CCN(C)CC5)cc4)cc3Cl)ccc2OC)c1` [Compound 29l, N-(3-chloro-4′-((1-methylpiperidin-4-yl)oxy)-[1,1′-biphenyl]-4-yl)-3′,6-dimethoxy-[1,1′-biphenyl]-3-carboxamide] the same measures were 4750 nM and 1800 ± 190 nM.
The corresponding values for `COc1cccc(-c2cc(C(=O)Nc3ccc(-c4ccc(OC5CCN(C)CC5)c(C#N)c4)cc3)ccc2OC)c1` [Compound 29m, N-(3′-cyano-4′-((1-methylpiperidin-4-yl)oxy)-[1,1′-biphenyl]-4-yl)-3′,6-dimethoxy-[1,1′-biphenyl]-3-carboxamide] are 2770 ± 1160 nM and 3700 ± 610 nM.
For `COc1cccc(-c2cc(C(=O)Nc3ccc(-c4ccc(OC5CCN(C)CC5)c([N+](=O)[O-])c4)cc3)ccc2OC)c1` [Compound 34a, 3′,6-dimethoxy-N-(4′-((1-methylpiperidin-4-yl)oxy)-3′-nitro-[1,1′-biphenyl]-4-yl)-[1,1′-biphenyl]-3-carboxamide] the same measures were 1950 nM and 1250 ± 280 nM.
`COc1cccc(-c2cc(C(=O)Nc3ccc(-c4ccc(OC5CCN(C)CC5)cc4[N+](=O)[O-])cc3)ccc2OC)c1` [Compound 34b, 3′,6-dimethoxy-N-(4′-((1-methylpiperidin-4-yl)oxy)-2′-nitro-[11′-biphenyl]-4-yl)-[1,1′-biphenyl]-3-carboxamide]: the IC50 in test [1] (setting [3]) is 1070 nM; in test [2] (setting [4]), 1300 ± 120 nM.
For `COc1cccc(-c2cc(C(=O)Nc3ccc(-c4ccc(OC5CCN(C)CC5)cc4)c([N+](=O)[O-])c3)ccc2OC)c1` [Compound 34c, 3′,6-dimethoxy-N-(4′-((1-methylpiperidin-4-yl)oxy)-2-nitro-[1,1′-biphenyl]-4-yl)-[1,1′-biphenyl]-3-carboxamide] the same measures were 2480 ± 770 nM and 3320 ± 250 nM.
In the case of `COc1cccc(-c2cc(C(=O)Nc3ccc(-c4ccc(OC5CCN(C)CC5)cc4)cc3[N+](=O)[O-])ccc2OC)c1` [Compound 34d, 3′,6-dimethoxy-N-(4′-((1-methylpiperidin-4-yl)oxy)-3-nitro-[1,1′-biphenyl]-4-yl)-[1,1′-biphenyl]-3-carboxamide], the IC50 in test [1] (setting [3]) is 920 nM; in test [2] (setting [4]), 1150 ± 10 nM.
With `COc1cccc(-c2cc(C(=O)Nc3ccc(-c4ccc(OC5CCN(C)CC5)c(N)c4)cc3)ccc2OC)c1` [Compound 38a, N-(3′-amino-4′-((1-methylpiperidin-4-yl)oxy)-[1,1′-biphenyl]-4-yl)-3′,6-dimethoxy-[1,1′-biphenyl]-3-carboxamide], the IC50 in test [1] (setting [3]) was determined as 2230 ± 490 nM; in test [2] (setting [4]) it was 5950 ± 1220 nM.
The corresponding values for `COc1cccc(-c2cc(C(=O)Nc3ccc(-c4ccc(OC5CCN(C)CC5)cc4N)cc3)ccc2OC)c1` [Compound 38b, N-(2′-amino-4′-((1-methylpiperidin-4-yl)oxy)-[1,1′-biphenyl]-4-yl)-3′,6-dimethoxy-[1,1′-biphenyl]-3-carboxamide] are 2130 ± 60 nM and 1760 ± 370 nM.
The corresponding values for `COc1cccc(-c2cc(C(=O)Nc3ccc(-c4ccc(OC5CCN(C)CC5)cc4)c(N)c3)ccc2OC)c1` [Compound 38c, N-(2-amino-4′-((1-methylpiperidin-4-yl)oxy)-[1,1′-biphenyl]-4-yl)-3′,6-dimethoxy-[1,1′-biphenyl]-3-carboxamide] are 3900 ± 180 nM and 2070 ± 230 nM.
For `COc1cccc(-c2cc(C(=O)Nc3ccc(-c4ccc(OC5CCN(C)CC5)cc4)cc3N)ccc2OC)c1` [Compound 38d, N-(3-amino-4′-((1-methylpiperidin-4-yl)oxy)-[1,1′-biphenyl]-4-yl)-3′,6-dimethoxy-[1,1′-biphenyl]-3-carboxamide] the same measures were 3210 ± 450 nM and 2250 ± 490 nM.
In the case of `COc1cccc(-c2cc(C(=O)Nc3ccc(-c4ccc(OC5CCN(C)CC5)c(NC(C)=O)c4)cc3)ccc2OC)c1` [Compound 39a, N-(3′-acetamido-4′-((1-methylpiperidin-4-yl)oxy)-[1,1′-biphenyl]-4-yl)-3′,6-dimethoxy-[1,1′-biphenyl]-3-carboxamide], the 50% inhibitory concentration (IC50) in test [1] (setting [3]) worked out at 2660 ± 760 nM; in test [2] (setting [4]), 1840 ± 430 nM.
For `COc1cccc(-c2cc(C(=O)Nc3ccc(-c4ccc(OC5CCN(C)CC5)cc4NC(C)=O)cc3)ccc2OC)c1` [Compound 39b, N-(2′-acetamido-4′-((1-methylpiperidin-4-yl)oxy)-[1,1′-biphenyl]-4-yl)-3′,6-dimethoxy-[1,1′-biphenyl]-3-carboxamide] the same measures were 3390 ± 660 nM and 1360 ± 230 nM.
For `COc1cccc(-c2cc(C(=O)Nc3ccc(-c4ccc(OC5CCN(C)CC5)cc4)c(NC(C)=O)c3)ccc2OC)c1` [Compound 39c, N-(2-acetamido-4′-((1-methylpiperidin-4-yl)oxy)-[1,1′-biphenyl]-4-yl)-3′,6-dimethoxy-[1,1′-biphenyl]-3-carboxamide] the same measures were 2520 ± 260 nM and 4660 ± 490 nM.
The corresponding values for `COc1cccc(-c2cc(C(=O)Nc3ccc(-c4ccc(OC5CCN(C)CC5)cc4)cc3NC(C)=O)ccc2OC)c1` [Compound 39d, N-(3-acetamido-4′-((1-methylpiperidin-4-yl)oxy)-[1,1′-biphenyl]-4-yl)-3′,6-dimethoxy-[1,1′-biphenyl]-3-carboxamide] are 3510 ± 560 nM and 1660 ± 590 nM.
As for `CN1CCC(Oc2ccc(-c3ccc(NC(=O)c4ccccc4)cc3)cc2)CC1` [Compound 41a, N-(4′-((1-methylpiperidin-4-yl)oxy)-[1,1′-biphenyl]-4-yl)benzamide], the 50% inhibitory concentration (IC50) in test [1] (setting [5]) is 4130 ± 220 nM; in test [2] (setting [6]), 3950 ± 130 nM.
For the molecule `CN1CCC(Oc2ccc(-c3ccc(NC(=O)c4ccc(Cl)cc4)cc3)cc2)CC1` [Compound 41b, 4-chloro-N-(4′-((1-methylpiperidin-4-yl)oxy)-[1,1′-biphenyl]-4-yl)benzamide], the IC50 in test [1] (setting [7]) came to 570 ± 10 nM; in test [1] (setting [5]), 570 ± 10 nM; in test [2] (setting [8]), 520 ± 30 nM; in test [2] (setting [6]), 520 ± 30 nM.
For the molecule `CN1CCC(Oc2ccc(-c3ccc(NC(=O)c4ccc(Br)cc4)cc3)cc2)CC1` [Compound 41c, 4-bromo-N-(4′-((1-methylpiperidin-4-yl)oxy)-[1,1′-biphenyl]-4-yl)benzamide], the results for the half-inhibitory concentration (IC50) in test [1] (setting [5]) and in test [2] (setting [6]) were 520 ± 210 nM and 520 ± 150 nM, respectively.
The corresponding values for `CN1CCC(Oc2ccc(-c3ccc(NC(=O)c4ccc(I)cc4)cc3)cc2)CC1` [Compound 41d, 4-iodo-N-(4′-((1-methylpiperidin-4-yl)oxy)-[1,1′-biphenyl]-4-yl)benzamide] are 310 ± 90 nM and 580 ± 10 nM.
For `Cc1ccc(C(=O)Nc2ccc(-c3ccc(OC4CCN(C)CC4)cc3)cc2)cc1` [Compound 41e, 4-methyl-N-(4′-((1-methylpiperidin-4-yl)oxy)-[1,1′-biphenyl]-4-yl)benzamide] the same measures were 980 ± 190 nM and 1270 ± 130 nM.
For `COc1ccc(C(=O)Nc2ccc(-c3ccc(OC4CCN(C)CC4)cc3)cc2)cc1` [Compound 41f, 4-methoxy-N-(4′-((1-methylpiperidin-4-yl)oxy)-[1,1′-biphenyl]-4-yl)benzamide], the IC50 came to 490 ± 10 nM in test [1] (setting [7]), 490 ± 10 nM in test [1] (setting [5]), 650 ± 40 nM in test [2] (setting [8]) and 650 ± 40 nM in test [2] (setting [6]).
